Measurements: patent publication US20250042900A1 (priority 2022, published 2025)
Counter-ions that a name gives are not always drawn.

Key:
[1] = biological target: T1, dopamine transporter (DAT) (Rattus norvegicus, UniProt P23977); assay: Dopamine Release Assay in rat synaptosomes; assay type: biochemical; conditions: rat synaptosomes preloaded with 30 nM [3H]DA; eight concentrations from 10 μM; four-parameter log-logistic fit; estimated
T1 construct: synaptosomes prepared from brains using standard procedures; from tissue; host or cells: caudate synaptosomes of male Sprague-Dawley rats

[2] = biological target: CAV1.2 (Voltage-gated L-type calcium channel) (Homo sapiens, UniProt Q13936); assay: Ion channel assay, blocker format; assay type: cell-based; conditions: read-out: IC50 (μM) Antag./Blocker/Inhibitor
DAT and SERT = conditions: cited from earlier work
[3] = humans, after 75 or 125 mg MDMA; standard deviation 1.3 hours; cited from earlier work
DAT and NET = conditions: neurotransmitter release; cited from earlier work
[4] = biological target: Nicotinic acetylcholine Receptor α4 β2 (nAChR(a4/b2)) (Homo sapiens, UniProt P17787+P43681); assay: Ion channel assay, blocker format; assay type: cell-based; conditions: nAChR(a4/b2); Ion Channel; blocker; read-out: IC50 (μM) Antag./Blocker/Inhibitor
[5] = biological target: Gamma-aminobutyric acid Receptor A (GABAA); assay: Ion channel assay, blocker format; assay type: cell-based; conditions: GABAA; Ion Channel; blocker; read-out: IC50 (μM) Antag./Blocker/Inhibitor

T1 sequence (P23977 whole entry): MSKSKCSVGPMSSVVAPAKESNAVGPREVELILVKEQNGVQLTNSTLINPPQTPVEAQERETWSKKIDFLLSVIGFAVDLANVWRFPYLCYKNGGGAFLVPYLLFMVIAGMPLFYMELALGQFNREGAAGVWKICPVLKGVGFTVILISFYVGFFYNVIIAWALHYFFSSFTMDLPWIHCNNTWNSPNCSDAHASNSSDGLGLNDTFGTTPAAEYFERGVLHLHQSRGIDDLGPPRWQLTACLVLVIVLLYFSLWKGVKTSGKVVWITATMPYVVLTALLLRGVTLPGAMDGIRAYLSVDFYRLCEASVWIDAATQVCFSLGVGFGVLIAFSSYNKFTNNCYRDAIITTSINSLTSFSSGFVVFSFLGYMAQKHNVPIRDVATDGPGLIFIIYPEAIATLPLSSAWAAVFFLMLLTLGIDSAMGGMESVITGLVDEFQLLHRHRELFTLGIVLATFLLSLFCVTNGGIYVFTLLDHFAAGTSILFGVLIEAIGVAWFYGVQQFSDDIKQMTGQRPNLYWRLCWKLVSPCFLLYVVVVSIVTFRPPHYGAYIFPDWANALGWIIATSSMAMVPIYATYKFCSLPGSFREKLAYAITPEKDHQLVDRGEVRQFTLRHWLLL
Sequence of CAV1.2 (Voltage-gated L-type calcium channel) (Q13936 whole entry): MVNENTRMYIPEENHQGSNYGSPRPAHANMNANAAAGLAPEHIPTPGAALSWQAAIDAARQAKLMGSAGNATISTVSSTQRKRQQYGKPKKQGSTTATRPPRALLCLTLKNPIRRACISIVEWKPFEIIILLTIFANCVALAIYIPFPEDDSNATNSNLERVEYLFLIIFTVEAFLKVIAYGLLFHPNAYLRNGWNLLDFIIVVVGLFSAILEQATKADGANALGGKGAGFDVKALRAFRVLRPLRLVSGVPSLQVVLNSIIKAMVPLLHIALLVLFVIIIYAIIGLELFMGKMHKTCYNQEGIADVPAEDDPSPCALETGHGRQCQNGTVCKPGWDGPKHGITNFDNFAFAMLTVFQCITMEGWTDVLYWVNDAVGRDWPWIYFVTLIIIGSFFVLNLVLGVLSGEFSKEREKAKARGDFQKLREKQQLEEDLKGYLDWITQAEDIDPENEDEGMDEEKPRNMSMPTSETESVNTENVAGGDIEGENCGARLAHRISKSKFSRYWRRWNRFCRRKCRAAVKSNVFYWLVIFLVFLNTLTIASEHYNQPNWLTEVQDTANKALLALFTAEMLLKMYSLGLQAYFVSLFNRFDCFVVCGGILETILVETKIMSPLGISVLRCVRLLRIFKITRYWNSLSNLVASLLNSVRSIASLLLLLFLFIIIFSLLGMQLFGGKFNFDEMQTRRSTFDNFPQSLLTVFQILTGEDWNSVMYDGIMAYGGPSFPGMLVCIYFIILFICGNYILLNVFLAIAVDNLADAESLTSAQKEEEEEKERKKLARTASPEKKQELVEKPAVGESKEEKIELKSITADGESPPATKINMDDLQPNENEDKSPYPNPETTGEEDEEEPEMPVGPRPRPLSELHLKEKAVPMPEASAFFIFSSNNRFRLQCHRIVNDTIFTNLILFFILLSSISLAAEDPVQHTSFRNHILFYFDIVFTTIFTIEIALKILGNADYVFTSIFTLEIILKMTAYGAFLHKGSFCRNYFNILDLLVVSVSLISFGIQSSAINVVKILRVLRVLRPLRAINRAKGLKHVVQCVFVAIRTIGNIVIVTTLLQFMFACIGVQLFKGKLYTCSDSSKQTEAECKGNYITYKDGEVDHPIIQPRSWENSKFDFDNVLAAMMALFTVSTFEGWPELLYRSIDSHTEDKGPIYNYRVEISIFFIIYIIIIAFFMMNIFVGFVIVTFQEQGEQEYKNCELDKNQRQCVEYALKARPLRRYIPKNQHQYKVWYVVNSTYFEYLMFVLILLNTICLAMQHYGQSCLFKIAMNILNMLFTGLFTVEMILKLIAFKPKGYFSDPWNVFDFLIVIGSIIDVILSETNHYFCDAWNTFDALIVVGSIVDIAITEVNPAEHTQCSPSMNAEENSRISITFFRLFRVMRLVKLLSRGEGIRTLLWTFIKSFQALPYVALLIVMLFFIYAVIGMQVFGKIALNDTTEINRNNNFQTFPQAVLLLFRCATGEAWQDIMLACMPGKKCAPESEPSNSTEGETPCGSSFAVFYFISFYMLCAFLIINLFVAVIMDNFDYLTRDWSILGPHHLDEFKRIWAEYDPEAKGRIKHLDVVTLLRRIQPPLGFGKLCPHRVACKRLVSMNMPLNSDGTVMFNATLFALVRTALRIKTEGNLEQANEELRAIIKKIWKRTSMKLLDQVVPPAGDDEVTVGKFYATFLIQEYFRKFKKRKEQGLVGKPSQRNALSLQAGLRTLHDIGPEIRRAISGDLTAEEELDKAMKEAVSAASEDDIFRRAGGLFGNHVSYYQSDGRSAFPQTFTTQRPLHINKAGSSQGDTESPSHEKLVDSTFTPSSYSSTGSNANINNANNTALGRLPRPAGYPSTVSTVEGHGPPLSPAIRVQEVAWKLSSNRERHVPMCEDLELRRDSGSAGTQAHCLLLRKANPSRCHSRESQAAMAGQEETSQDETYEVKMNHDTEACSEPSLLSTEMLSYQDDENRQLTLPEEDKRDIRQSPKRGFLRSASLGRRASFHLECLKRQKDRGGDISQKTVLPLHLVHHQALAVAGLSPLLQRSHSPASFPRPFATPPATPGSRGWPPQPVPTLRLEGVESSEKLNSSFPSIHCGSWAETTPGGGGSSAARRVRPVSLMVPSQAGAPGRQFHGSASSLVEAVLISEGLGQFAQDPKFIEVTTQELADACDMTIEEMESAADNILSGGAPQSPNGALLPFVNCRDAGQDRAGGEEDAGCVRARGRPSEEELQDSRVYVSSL
Sequence of CAV1.2 (Voltage-gated L-type calcium channel) (Q08289 whole entry partner): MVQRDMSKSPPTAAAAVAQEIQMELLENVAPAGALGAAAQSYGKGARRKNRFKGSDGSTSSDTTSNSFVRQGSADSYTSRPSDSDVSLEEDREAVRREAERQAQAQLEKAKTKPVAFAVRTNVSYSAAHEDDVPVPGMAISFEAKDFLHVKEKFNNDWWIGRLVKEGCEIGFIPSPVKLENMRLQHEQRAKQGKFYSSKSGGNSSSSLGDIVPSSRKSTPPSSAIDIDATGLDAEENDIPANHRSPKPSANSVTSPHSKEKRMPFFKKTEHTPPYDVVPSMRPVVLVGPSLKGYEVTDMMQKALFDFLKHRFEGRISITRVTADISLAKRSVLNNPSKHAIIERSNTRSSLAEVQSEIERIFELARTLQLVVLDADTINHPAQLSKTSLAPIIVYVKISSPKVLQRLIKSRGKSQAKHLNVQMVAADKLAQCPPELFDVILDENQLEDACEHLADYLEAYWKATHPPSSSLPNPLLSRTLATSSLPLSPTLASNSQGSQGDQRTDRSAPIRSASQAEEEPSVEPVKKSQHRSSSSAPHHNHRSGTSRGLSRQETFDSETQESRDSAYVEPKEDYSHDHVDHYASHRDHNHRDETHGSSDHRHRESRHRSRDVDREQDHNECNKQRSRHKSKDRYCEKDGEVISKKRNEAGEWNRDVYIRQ
Sequence of CAV1.2 (Voltage-gated L-type calcium channel) (P54289 25-956 partner limits assumed): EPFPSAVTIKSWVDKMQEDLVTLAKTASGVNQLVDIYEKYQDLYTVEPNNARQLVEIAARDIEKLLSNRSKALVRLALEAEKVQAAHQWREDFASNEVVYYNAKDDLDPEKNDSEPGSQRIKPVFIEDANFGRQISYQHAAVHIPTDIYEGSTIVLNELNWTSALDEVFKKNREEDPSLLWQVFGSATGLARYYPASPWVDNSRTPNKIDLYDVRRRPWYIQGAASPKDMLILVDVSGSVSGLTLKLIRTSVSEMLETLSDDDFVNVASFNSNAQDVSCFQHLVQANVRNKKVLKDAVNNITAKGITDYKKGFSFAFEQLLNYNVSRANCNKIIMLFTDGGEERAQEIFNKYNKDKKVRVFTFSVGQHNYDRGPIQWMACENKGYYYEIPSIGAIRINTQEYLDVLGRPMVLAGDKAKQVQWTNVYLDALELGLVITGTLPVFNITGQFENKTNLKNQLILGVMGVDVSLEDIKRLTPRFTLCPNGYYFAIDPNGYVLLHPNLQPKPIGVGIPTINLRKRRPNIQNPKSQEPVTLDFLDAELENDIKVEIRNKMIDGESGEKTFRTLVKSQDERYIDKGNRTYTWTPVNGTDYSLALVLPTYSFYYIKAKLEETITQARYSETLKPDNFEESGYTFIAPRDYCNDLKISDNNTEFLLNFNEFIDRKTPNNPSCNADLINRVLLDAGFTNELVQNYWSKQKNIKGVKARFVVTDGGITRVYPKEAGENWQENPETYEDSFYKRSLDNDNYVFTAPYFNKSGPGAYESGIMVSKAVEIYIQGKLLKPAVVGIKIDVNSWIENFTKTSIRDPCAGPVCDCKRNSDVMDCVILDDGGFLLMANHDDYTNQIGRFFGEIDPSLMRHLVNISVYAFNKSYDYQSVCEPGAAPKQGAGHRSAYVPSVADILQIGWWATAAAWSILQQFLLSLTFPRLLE
Sequence of CAV1.2 (Voltage-gated L-type calcium channel) (P54289 957-1103 partner limits assumed): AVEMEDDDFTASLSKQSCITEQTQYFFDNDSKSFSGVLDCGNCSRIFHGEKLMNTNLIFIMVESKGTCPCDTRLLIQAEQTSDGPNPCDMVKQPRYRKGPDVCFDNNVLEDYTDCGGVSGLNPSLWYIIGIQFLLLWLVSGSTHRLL

CCC(Cc1ccn2ccccc12)NC (stereo not shown) [Compound 25-14, 1-(indolizin-1-yl)-N-methylbutan-2-amine]
EC50 [1]: 2710 nM

CNC(C)Cc1ccn2ccccc12 (stereo not shown) [Compound 26-5, 1-(indolizin-1-yl)-N-methylpropan-2-amine HCl salt]
EC50 [1]: 61.9 nM

CCC(N)Cc1ccn2ccccc12 (stereo not shown) [Compound 27-1, 1-indolizin-1-ylbutan-2-amine HCl salt]
EC50 [1]: 21800 nM

COC(=O)C1=C(C)NC(C)=C(C(=O)OC(C)C)C1c1cccc2nonc12 (stereo not shown) [Isradipine, reference compound]
IC50 [2]: 0.017 µM

CNC(C)Cc1ccc2c(c1)OCO2 (stereo not shown) [MDMA]
DAT/SERT IC50 ratio (DAT and SERT): 0.08
duration of acute therapeutic effects [3]: 4.2 h

C[C@H](N)Cc1ccccc1 [d-amphetamine, dextroamphetamine]
DAT/NET EC50 ratio (DAT and NET): 0.9

CN[C@@H](C)Cc1ccccc1 [d-methamphetamine]
DAT/NET EC50 ratio (DAT and NET): 0.5

Dihydro-AY-erythroidine [reference compound]
IC50 [4]: 0.682 µM

Picrotoxin [reference compound]
IC50 [5]: 2.78 µM
